# Measured values published in PubChem BioAssay (NCI).
#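 GI50 marks 50% less growth. Definition used: TGI = concentration required for complete inhibition of growth.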
# How the values were obtained:
# Test in all cases: growth of human tumour cells (NCI), 384-well format
# 786-0 renal = tested on: 786-0 renal
# A498 renal = tested on: A498 renal
# A549 NSCLC = tested on: A549 NSCLC
# ACHN renal = tested on: ACHN renal
# BT-549 breast = tested on: BT-549 breast
# CAKI-1 renal = tested on: CAKI-1 renal
# CCRF-CEM leukemia = tested on: CCRF-CEM leukemia
# COLO 205 colon = tested on: COLO 205 colon
# DU-145 prostate = tested on: DU-145 prostate
# HCC-2998 colon = tested on: HCC-2998 colon
# HCT-116 colon = tested on: HCT-116 colon
# HCT-15 colon = tested on: HCT-15 colon
# HL-60(TB) leukemia = tested on: HL-60(TB) leukemia
# HOP-62 NSCLC = tested on: HOP-62 NSCLC
# HOP-92 NSCLC = tested on: HOP-92 NSCLC
# HT29 colon = tested on: HT29 colon
# IGROV1 ovarian = tested on: IGROV1 ovarian
# K-562 leukemia = tested on: K-562 leukemia
# KM12 colon = tested on: KM12 colon
# LOX IMVI melanoma = tested on: LOX IMVI melanoma
# M14 melanoma = tested on: M14 melanoma
# MALME-3M melanoma = tested on: MALME-3M melanoma
# MCF7 breast = tested on: MCF7 breast
# MDA-MB-231 breast = tested on: MDA-MB-231 breast
# MDA-MB-435 melanoma = tested on: MDA-MB-435 melanoma
# MDA-MB-468 breast = tested on: MDA-MB-468 breast
# MOLT-4 leukemia = tested on: MOLT-4 leukemia
# NCI-H226 lung = tested on: NCI-H226 lung
# NCI-H23 lung = tested on: NCI-H23 lung
# NCI-H322M lung = tested on: NCI-H322M lung
# NCI-H460 NSCLC = tested on: NCI-H460 NSCLC
# NCI-H522 lung = tested on: NCI-H522 lung
# NCI/ADR-RES ovarian = tested on: NCI/ADR-RES ovarian
# OVCAR-3 ovarian = tested on: OVCAR-3 ovarian
# OVCAR-4 ovarian = tested on: OVCAR-4 ovarian
# OVCAR-5 ovarian = tested on: OVCAR-5 ovarian
# OVCAR-8 ovarian = tested on: OVCAR-8 ovarian
# PC-3 prostate = tested on: PC-3 prostate
# RPMI-8226 leukemia = tested on: RPMI-8226 leukemia
# RXF 393 renal = tested on: RXF 393 renal
# SF-268 CNS = tested on: SF-268 CNS
# SF-295 CNS = tested on: SF-295 CNS
# SF-539 CNS = tested on: SF-539 CNS
# SK-MEL-2 melanoma = tested on: SK-MEL-2 melanoma
# SK-MEL-28 melanoma = tested on: SK-MEL-28 melanoma
# SK-MEL-5 melanoma = tested on: SK-MEL-5 melanoma
# SK-OV-3 ovarian = tested on: SK-OV-3 ovarian
# SN12C renal = tested on: SN12C renal
# SNB-19 CNS = tested on: SNB-19 CNS
# SR leukemia = tested on: SR leukemia
# SW-620 colon = tested on: SW-620 colon
# T-47D breast = tested on: T-47D breast
# TK-10 renal = tested on: TK-10 renal
# U251 glioblastoma = tested on: U251 glioblastoma
# UACC-257 melanoma = tested on: UACC-257 melanoma
# UACC-62 melanoma = tested on: UACC-62 melanoma
# UO-31 renal = tested on: UO-31 renal
compound,measurement,setting,value
CNC(=O)n1ccc2cc(Oc3ccnc(NC(=O)c4ccc(C5CCN(CCO)CC5)cc4)c3)c(OCCOC)cc21,GI50,786-0 renal,1120 nM
same,TGI,786-0 renal,2430 nM
same,GI50,A498 renal,1260 nM
same,TGI,A498 renal,2960 nM
same,GI50,A549 NSCLC,3210 nM
same,TGI,A549 NSCLC,11100 nM
same,GI50,ACHN renal,1730 nM
same,TGI,ACHN renal,3310 nM
same,GI50,BT-549 breast,1370 nM
same,TGI,BT-549 breast,3060 nM
same,GI50,CAKI-1 renal,2770 nM
same,TGI,CAKI-1 renal,5470 nM
same,GI50,CCRF-CEM leukemia,1740 nM
same,TGI,CCRF-CEM leukemia,3130 nM
same,GI50,COLO 205 colon,2270 nM
same,TGI,COLO 205 colon,5230 nM
same,GI50,DU-145 prostate,3600 nM
same,TGI,DU-145 prostate,12400 nM
same,GI50,HCC-2998 colon,2240 nM
same,TGI,HCC-2998 colon,4070 nM
same,GI50,HCT-116 colon,1320 nM
same,TGI,HCT-116 colon,2650 nM
same,GI50,HCT-15 colon,1670 nM
same,TGI,HCT-15 colon,3180 nM
same,GI50,HL-60(TB) leukemia,2480 nM
same,TGI,HL-60(TB) leukemia,3950 nM
same,GI50,HOP-62 NSCLC,2120 nM
same,TGI,HOP-62 NSCLC,4610 nM
same,GI50,HOP-92 NSCLC,1650 nM
same,TGI,HOP-92 NSCLC,3550 nM
same,GI50,HT29 colon,171 nM
same,TGI,HT29 colon,699 nM
same,GI50,IGROV1 ovarian,3480 nM
same,TGI,IGROV1 ovarian,14000 nM
same,GI50,K-562 leukemia,186 nM
same,TGI,K-562 leukemia,451 nM
same,GI50,KM12 colon,1840 nM
same,TGI,KM12 colon,3650 nM
same,GI50,LOX IMVI melanoma,1720 nM
same,TGI,LOX IMVI melanoma,3110 nM
same,GI50,M14 melanoma,1910 nM
same,TGI,M14 melanoma,3330 nM
same,GI50,MALME-3M melanoma,1830 nM
same,TGI,MALME-3M melanoma,3240 nM
same,GI50,MCF7 breast,1350 nM
same,TGI,MCF7 breast,3300 nM
same,GI50,MDA-MB-231 breast,1650 nM
same,TGI,MDA-MB-231 breast,3170 nM
same,GI50,MDA-MB-435 melanoma,2250 nM
same,TGI,MDA-MB-435 melanoma,4050 nM
same,GI50,MDA-MB-468 breast,1860 nM
same,TGI,MDA-MB-468 breast,3280 nM
same,GI50,MOLT-4 leukemia,1400 nM
same,TGI,MOLT-4 leukemia,2700 nM
same,GI50,NCI-H226 lung,66.3 nM
same,TGI,NCI-H226 lung,2180 nM
same,GI50,NCI-H23 lung,3860 nM
same,TGI,NCI-H23 lung,13400 nM
same,GI50,NCI-H322M lung,1830 nM
same,TGI,NCI-H322M lung,4690 nM
same,GI50,NCI-H460 NSCLC,1650 nM
same,TGI,NCI-H460 NSCLC,3100 nM
same,GI50,NCI-H522 lung,2130 nM
same,TGI,NCI-H522 lung,3850 nM
same,GI50,NCI/ADR-RES ovarian,4830 nM
same,TGI,NCI/ADR-RES ovarian,16600 nM
same,GI50,OVCAR-3 ovarian,2030 nM
same,TGI,OVCAR-3 ovarian,3650 nM
same,GI50,OVCAR-4 ovarian,1380 nM
same,TGI,OVCAR-4 ovarian,2830 nM
same,GI50,OVCAR-5 ovarian,1970 nM
same,TGI,OVCAR-5 ovarian,7920 nM
same,GI50,OVCAR-8 ovarian,1820 nM
same,TGI,OVCAR-8 ovarian,3300 nM
same,GI50,PC-3 prostate,2310 nM
same,TGI,PC-3 prostate,4650 nM
same,GI50,RPMI-8226 leukemia,1520 nM
same,TGI,RPMI-8226 leukemia,2860 nM
same,GI50,RXF 393 renal,304 nM
same,TGI,RXF 393 renal,913 nM
same,GI50,SF-268 CNS,1770 nM
same,TGI,SF-268 CNS,3650 nM
same,GI50,SF-295 CNS,1820 nM
same,TGI,SF-295 CNS,3760 nM
same,GI50,SF-539 CNS,1020 nM
same,TGI,SF-539 CNS,2190 nM
same,GI50,SK-MEL-2 melanoma,1590 nM
same,TGI,SK-MEL-2 melanoma,2990 nM
same,GI50,SK-MEL-28 melanoma,1840 nM
same,TGI,SK-MEL-28 melanoma,3250 nM
same,GI50,SK-MEL-5 melanoma,1480 nM
same,TGI,SK-MEL-5 melanoma,2810 nM
same,GI50,SK-OV-3 ovarian,1830 nM
same,TGI,SK-OV-3 ovarian,3620 nM
same,GI50,SN12C renal,3500 nM
same,TGI,SN12C renal,9770 nM
same,GI50,SNB-19 CNS,3610 nM
same,TGI,SNB-19 CNS,11800 nM
same,GI50,SR leukemia,830 nM
same,TGI,SR leukemia,2050 nM
same,GI50,SW-620 colon,3010 nM
same,TGI,SW-620 colon,4960 nM
same,GI50,T-47D breast,1080 nM
same,TGI,T-47D breast,2300 nM
same,GI50,TK-10 renal,1960 nM
same,TGI,TK-10 renal,4440 nM
same,GI50,U251 glioblastoma,1560 nM
same,TGI,U251 glioblastoma,3110 nM
same,GI50,UACC-257 melanoma,1420 nM
same,TGI,UACC-257 melanoma,2730 nM
same,GI50,UACC-62 melanoma,1750 nM
same,TGI,UACC-62 melanoma,3160 nM
same,GI50,UO-31 renal,498 nM
same,TGI,UO-31 renal,1740 nM
